Assay results taken from patent US12070458B2, “Therapeutic agent composition and method of use, for treatment of mild congnitive impairment, depression, and psychological disorders” (priority 2018, dated 2024).

Tests used:
[1] = test system: scopolamine-induced memory impairment; test: Morris Water Maze, scopolamine-induced memory impairment; format: in vivo, Wistar rats; conditions: 20 mg/kg; daily, oral; scopolamine 0.5 mg/kg i.p.
NR2B-subtype receptors = molecular target: T1, NR2B-subtype receptors (Mus musculus, UniProt P35438+Q01097); test: NR2B receptor occupancy ex vivo (3H Ro 25-6981) after intravenous administration; format: in vivo, CD-1 mice
T1 construct: from tissue; host or cells: forebrain membrane homogenate of male CD-1 mice
Experimental: In this experiment, 8-10 weeks old male CD-1 mice (n=12) were administered intravenously in a vehicle consisting of 10% dimethylacetamide, 40% PEG-400, 30% hydroxypropyl betacyclodextrin, and 30% water with cyclic Prolyl Glycine (0.10 mg: rill, and the forebrains were harvested 15 minutes post-dosing by decapitation. The brain samples were immediately frozen and stored at −80′ C.
On the following day, the dosed brain samples were thawed on ice for 20-30 minutes followed by homogenization using Polytron for 10 seconds in cold homogenization buffer composed of 50 mM KH2PO4 (pH adjusted to 7.4 with KOH), 1 mM EDTA, 0.005% Triton X 100 and protease inhibitor cocktail (Fischer Scientific). The crude homogenates were further homogenized using a Bounce homogenizer (Thomas Scientific) and the homogenized membrane aliquots from all animals were […] and stored at −80° C. until further use. The whole homogenization process was performed on ice.
For determining occupancy, the membrane homogenates were thawed on ice and then needle homogenized using a 25-gauge needle. […] Non-specific binding was determined using 10 μM Ro 25-6981 added to the wells containing membrane homogenates from vehicle-dosed animals. […]

[2] = test system: extracellular levels of serotonin (5-HT), noradrenaline, dopamine, acetylcholine and histamine; test: Extracellular neurotransmitter levels in rat prefrontal cortex and hippocampus; conditions: in vivo
[3] = test system: patients with major depressive disorder; test: Double-blind, randomized, placebo-controlled, active reference study in patients with major depressive disorder; format: in vivo, human; conditions: for change from baseline in MADRS total score, Mean ± SD / MADRS total score, Difference to Placebo: week 6
Text: This randomized, double-blind, fixed-dose, placebo-controlled, active reference study recruited 32 randomized patients in accordance with the principles of Good Clinical Practice [ICH (1996). Harmonized Tripartite Guideline E6: Guideline for Good Clinical Practice (http://www.fda.gov/downloads/drugs/guidancecomplianceregulatoryinformation/gui dances/ucm073122.pdf)] and the Declaration of Helsinki [WMA (1964). Ethical Principles for Medical Research Involving Human Subjects (http://www.wma.net/en/30publications/10policies/b3/). World Medical Association.] Local ethics committees approved the study design and eligible patients gave their written informed consent before participating.
Eligible patients were randomized equally (1:1:1:1) to one of the four treatment arms for a 6-week double-blind treatment period. Randomized patients were given 1-week wallet cards at each visit and were instructed to take two capsules per day, orally, at the same time every day (preferably in the morning). NA-831 was dosed at 20 mg/day or 40 mg/d for 6 week and venlafaxine at 75 mg/d over 6-week treatment period. Efficacy and tolerability were assessed at screening, baseline and after 1, 2, 3, 4, 5, and 6 week. Patients were contacted for a safety follow-up 4 week after the completion visit.
Patients with MDD presenting with a current major depressive episode according to DSM-IV-TR criteria were included in the study if they were an outpatient of either sex, aged from 20 yr to 65 yr, (mean=39.7±8.5) (with a Montgomery—Åsberg Depression Rating Scale (MADRS) (Montgomery & Åsberg, 1979) total score ≥30 at the baseline visit. [Montgomery S Åsberg M (1979). A new depression scale designed to be sensitive to change. British Journal of Psychiatry 134 382-389.https://doi.org/10.1192/bjp.134.4.382]
Patients were evaluated using the MADRS from baseline to week 6. Rater training was undertaken to increase inter-rater reliability, and was supervised by an experienced investigator. Only those investigators who had actively participated in rater training sessions prior to inclusion of patients into the study were allowed to rate patients. Patient ratings were assessed by the same investigator at each visit, whenever possible.
All safety analyses were based on the all-patients-treated set (APT), comprising all randomized patients who took at least one dose of study medication. All efficacy analyses were based on a modified intent-to-treat set (ITT)—the full-analysis set (FAS), comprising all patients in the […] who had at least one valid post-baseline MADRS total score assessment.
Four hypotheses were part of the primary efficacy analysis, which was fully adjusted for multiplicity using a hierarchical testing procedure at the 5% level of significance as long as the previous hypothesis was rejected. The order of testing was: no difference between the 20 mg dose vs. placebo at week 6, no difference between […] at week 6, no difference between 20 mg dose vs. placebo at week 1, and finally no difference between 40 mg dose vs. placebo at week 1. The statistical model was an analysis of covariance (ANCOVA) of the change from baseline in MADRS total score (FAS, LOCF) with treatment and site as fixed factors and the baseline MADRS score as a covariate. The primary efficacy analysis was repeated on observed cases (OC) data, using both an ANCOVA and a mixed model for repeated measurements (MMRM).
All adverse effects (AEs) (including any change in concurrent illnesses or new illnesses) either observed by the investigator or reported spontaneously by the patient were recorded. AEs were coded using the lowest level term according to the Medical Dictionary for Regulatory Activities, version 10.0. As a post-hoc analysis, the safety database was searched at preferred-term and verbatim-term level for possible suicide-related AEs, as described by the FDA [Laughren (2006). Memorandum on Suicidality. (http://www.fda.gov/ohrms/dockets/ac/06/briefing/2006-4272b1-01-fda.pdf)].

T1 sequence (Q01097 27-1482, other chains not shown): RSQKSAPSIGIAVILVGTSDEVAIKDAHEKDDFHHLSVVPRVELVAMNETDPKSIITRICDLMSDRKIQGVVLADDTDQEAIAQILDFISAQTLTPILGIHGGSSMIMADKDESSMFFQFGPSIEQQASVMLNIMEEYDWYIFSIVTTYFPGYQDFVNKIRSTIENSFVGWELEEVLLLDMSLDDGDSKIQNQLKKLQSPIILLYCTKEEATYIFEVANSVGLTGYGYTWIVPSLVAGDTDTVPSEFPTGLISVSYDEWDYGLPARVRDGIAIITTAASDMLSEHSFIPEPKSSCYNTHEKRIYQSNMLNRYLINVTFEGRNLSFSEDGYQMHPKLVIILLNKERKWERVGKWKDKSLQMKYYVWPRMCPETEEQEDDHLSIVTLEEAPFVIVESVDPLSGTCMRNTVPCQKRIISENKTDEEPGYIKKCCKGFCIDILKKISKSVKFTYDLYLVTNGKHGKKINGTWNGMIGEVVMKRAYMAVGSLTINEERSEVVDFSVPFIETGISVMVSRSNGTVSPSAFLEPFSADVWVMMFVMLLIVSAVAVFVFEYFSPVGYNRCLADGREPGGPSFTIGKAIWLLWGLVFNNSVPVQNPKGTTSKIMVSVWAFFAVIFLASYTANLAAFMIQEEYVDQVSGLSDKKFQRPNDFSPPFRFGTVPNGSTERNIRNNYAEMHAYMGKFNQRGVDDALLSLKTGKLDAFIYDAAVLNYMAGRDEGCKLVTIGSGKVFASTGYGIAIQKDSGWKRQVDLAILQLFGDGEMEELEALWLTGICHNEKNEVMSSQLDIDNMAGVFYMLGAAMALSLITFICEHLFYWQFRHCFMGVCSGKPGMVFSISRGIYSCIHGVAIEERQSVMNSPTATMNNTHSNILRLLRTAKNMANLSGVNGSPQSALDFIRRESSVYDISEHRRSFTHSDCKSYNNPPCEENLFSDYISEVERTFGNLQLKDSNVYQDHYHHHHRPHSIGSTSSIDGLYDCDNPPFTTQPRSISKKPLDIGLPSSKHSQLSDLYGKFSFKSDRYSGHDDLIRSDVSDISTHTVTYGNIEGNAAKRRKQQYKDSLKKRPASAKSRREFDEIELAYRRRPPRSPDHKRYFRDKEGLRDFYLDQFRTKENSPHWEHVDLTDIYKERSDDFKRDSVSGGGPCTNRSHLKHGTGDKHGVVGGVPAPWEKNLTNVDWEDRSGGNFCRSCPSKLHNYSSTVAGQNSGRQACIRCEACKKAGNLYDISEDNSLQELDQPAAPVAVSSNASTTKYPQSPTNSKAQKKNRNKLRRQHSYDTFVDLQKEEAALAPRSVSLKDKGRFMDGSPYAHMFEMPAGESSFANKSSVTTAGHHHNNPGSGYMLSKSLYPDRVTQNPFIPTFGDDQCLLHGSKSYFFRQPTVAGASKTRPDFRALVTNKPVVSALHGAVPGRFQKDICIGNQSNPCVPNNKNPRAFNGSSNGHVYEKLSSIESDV

## O=C1NCC(=O)N2CCC[C@@H]12 [cPG, cyclic Prolyl Glycine]
[1]
  cognitive impairment induced by scopolamine (time to platform): significantly reversed
NR2B-subtype receptors; 1 mg/Kg i.v., at the end of FST
  receptor occupancy at 1 mg/kg: 73%
NR2B-subtype receptors; 3 mg/Kg i.v., forebrains harvested 15 minutes post-dosing
  receptor occupancy at 3 mg/kg: 93%
[2]
  extracellular levels of serotonin (5-HT), noradrenaline, dopamine, acetylcholine and histamine: increases
[3]; LOCF, ANCOVA, 20 mg/day orally
  change from baseline in MADRS total score, Mean ± SD: −22.4 ± 1.0
[3]; LOCF, ANCOVA, 40 mg/d orally
  change from baseline in MADRS total score, Mean ± SD: −23.2 ± 1.0
[3]; MMRM, 20 mg/day orally
  change from baseline in MADRS total score, Mean ± SD: −22.3 ± 0.9
[3]; MMRM, 40 mg/d orally
  change from baseline in MADRS total score, Mean ± SD: −24.9 ± 1.1
[3]; OC, ANCOVA, 20 mg/day orally
  MADRS total score, Difference to Placebo: −5.7 ± 1.3
  change from baseline in MADRS total score, Mean ± SD: −22.3 ± 0.9
[3]; OC, ANCOVA, 40 mg/d orally
  MADRS total score, Difference to Placebo: −7.8 ± 1.3
  change from baseline in MADRS total score, Mean ± SD: −24.4 ± 1.0
[3]; human, in vivo
  tolerability: well tolerated
